One test has as its target T1, BRAF V600E (Homo sapiens, UniProt P15056+Q96SW2, V600E).
T1 construct: knock-in of the HiBiT tag to the endogenous BRAF V600E locus; host or cells: A375.10 (A375 clonal line, CRISPR HiBiT knock-in at the endogenous BRAF V600E locus)
The test is described as follows: BRAF V600E HiBiT Degradation Assay. In kind it is cell-based. The conditions noted are these: A375.10 cells, BRAF V600E. In outline: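 Endogenous HiBiT knock-in on BRAF V600E in A375 cells (clone A375.10); 11-point half-log series, top 10 μM, 2, 6 or 24 h at 37° C. Lytic HiBiT luminescence, background-subtracted, normalized to DMSO; 4-parameter fit gives DC50, Emax (residual protein) and IP (inflection point).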

In another test the test system is A375-NRAS^Q61K cells. Description: CTGlo Cell Viability Assay, A375-NRAS^Q61K (A375.11) cells, 96 hours. In kind it is cell-based, human. The conditions noted are these: Homo sapiens, 96 h, A375.11 (A375-NRAS^Q61K) cells; for Emax: lowest % viability achieved. Summed up: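 Viability as CellTiter-Glo ATP luminescence after 96 h compound exposure at 37 °C; A375.11 (BRAF V600E/NRAS Q61K) cells at 250/well, top final concentration 10 μM in half-log steps. Signal was background-corrected and set relative to DMSO controls. A 4-parameter logistic fit gave GI50 (50% crossing) and Emax.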

The mark [1] stands for this setting: 2 hours, inflection point, read-out: HiBiT-Degradation A375.10 BRAF 2 hours IP.
Setting [2] is: 2 hours, read-out: HiBiT-Degradation A375.10 BRAF 2 hours DC50.
[3] abbreviates: 2 hours, residual protein remaining, read-out: HiBiT-Degradation A375.10 BRAF 2 hours Emax.
The mark [4] stands for this setting: HiBiT, 24 hours, read-out: HiBiT-Degradation A375.10 BRAF 24 hours DC50.
The mark [5] stands for this setting: HiBiT, 24 hours, read-out: HiBiT-Degradation A375.10 BRAF 24 hours Emax.
Where [6] appears, read: HiBiT, 24 hours, read-out: HiBiT-Degradation A375.10 BRAF 24 hours IP.
Where [7] appears, read: read-out: HiBiT-Degradation A375.10 BRAF 2 hours DC50, 2 hours.
The mark [8] stands for this setting: read-out: HiBiT-Degradation A375.10 BRAF 2 hours IP, 2 hours, inflection point.

Like-named read-outs stand apart in the source and are kept apart here.

T1 sequence (P15056 whole entry V600E): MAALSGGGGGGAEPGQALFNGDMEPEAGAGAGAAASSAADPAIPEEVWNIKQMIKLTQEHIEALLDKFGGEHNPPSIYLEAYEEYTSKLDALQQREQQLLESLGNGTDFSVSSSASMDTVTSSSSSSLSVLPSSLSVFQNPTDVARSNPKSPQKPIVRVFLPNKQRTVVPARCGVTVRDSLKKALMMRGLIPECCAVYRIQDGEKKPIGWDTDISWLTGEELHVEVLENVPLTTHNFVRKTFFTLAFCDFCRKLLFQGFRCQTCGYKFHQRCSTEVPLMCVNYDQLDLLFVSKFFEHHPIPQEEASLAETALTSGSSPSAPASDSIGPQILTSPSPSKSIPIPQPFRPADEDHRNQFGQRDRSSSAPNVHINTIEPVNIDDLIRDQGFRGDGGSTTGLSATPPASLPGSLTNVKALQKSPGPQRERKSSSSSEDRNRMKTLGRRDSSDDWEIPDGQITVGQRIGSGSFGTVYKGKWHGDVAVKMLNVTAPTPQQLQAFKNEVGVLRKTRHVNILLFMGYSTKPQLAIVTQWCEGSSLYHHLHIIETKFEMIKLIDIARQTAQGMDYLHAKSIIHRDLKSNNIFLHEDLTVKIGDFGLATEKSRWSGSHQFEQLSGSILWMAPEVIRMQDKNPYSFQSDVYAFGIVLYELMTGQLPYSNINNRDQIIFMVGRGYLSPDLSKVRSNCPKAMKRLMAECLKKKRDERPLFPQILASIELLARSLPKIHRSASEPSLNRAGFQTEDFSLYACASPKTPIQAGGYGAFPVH
T1 sequence (Q96SW2 whole entry): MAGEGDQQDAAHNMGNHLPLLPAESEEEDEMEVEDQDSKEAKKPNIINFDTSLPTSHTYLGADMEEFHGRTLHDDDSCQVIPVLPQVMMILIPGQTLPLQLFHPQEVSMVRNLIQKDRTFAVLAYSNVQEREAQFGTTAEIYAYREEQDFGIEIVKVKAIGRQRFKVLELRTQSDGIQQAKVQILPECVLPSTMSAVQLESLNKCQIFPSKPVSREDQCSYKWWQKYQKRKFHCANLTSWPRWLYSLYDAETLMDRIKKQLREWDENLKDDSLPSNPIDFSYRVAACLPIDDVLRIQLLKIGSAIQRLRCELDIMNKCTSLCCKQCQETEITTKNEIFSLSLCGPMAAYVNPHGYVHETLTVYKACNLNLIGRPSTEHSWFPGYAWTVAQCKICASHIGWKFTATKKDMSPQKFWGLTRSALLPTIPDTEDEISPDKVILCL
T1 sequence (Q16531 whole entry partner): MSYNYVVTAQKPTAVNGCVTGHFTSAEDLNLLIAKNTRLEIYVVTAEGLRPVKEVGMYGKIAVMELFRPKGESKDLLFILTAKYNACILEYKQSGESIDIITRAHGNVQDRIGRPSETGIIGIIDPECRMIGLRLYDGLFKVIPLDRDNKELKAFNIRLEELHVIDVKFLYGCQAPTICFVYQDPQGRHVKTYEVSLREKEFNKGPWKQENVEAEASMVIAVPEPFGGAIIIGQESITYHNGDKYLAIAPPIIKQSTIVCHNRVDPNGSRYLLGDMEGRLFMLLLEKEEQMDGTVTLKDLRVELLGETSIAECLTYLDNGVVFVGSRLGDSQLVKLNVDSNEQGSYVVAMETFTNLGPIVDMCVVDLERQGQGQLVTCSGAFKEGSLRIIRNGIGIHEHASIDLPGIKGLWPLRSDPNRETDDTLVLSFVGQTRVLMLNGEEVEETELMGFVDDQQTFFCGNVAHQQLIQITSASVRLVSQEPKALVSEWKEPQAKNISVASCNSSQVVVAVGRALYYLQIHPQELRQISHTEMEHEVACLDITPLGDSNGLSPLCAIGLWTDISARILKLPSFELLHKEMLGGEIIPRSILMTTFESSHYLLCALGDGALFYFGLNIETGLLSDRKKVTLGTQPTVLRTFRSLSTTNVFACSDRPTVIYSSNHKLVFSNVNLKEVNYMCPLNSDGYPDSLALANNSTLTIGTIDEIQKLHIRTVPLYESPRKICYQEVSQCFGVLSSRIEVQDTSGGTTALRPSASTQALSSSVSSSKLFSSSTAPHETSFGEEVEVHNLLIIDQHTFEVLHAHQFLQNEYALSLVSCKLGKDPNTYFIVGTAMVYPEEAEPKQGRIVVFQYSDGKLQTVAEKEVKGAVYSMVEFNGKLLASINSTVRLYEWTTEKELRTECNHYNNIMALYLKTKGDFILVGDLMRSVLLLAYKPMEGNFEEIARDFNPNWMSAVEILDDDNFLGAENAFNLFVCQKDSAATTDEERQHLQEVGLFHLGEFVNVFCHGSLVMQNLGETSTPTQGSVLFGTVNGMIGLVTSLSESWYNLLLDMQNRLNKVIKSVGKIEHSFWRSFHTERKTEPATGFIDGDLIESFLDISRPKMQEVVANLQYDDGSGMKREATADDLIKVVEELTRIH

Take `CCN(C)S(=O)(=O)Nc1ccc(F)c(Oc2ccc3ncn([C@H]4COC5(CCN(CC6(O)CCN(c7cc8c(cc7F)c(N7CCC(=O)NC7=O)nn8C)CC6)CC5)C4)c(=O)c3c2)c1C#N` [Compound 230, (3R)-3-[6-[2-cyano-3-[[ethyl(methyl)sulfamoyl]amino]-6-fluoro-phenoxy]-4-oxo-quinazolin-3-yl]-8-[[1-[3-(2,4-dioxohexahydropyrimidin-1-yl)-5-fluoro-1-methyl-indazol-6-yl]-4-hydroxy-4-piperidyl]methyl]-1-oxa-8-azaspiro[4.5]decane]: the DC50 on BRAF V600E (setting [1]), at BRAF V600E (setting [2]), at BRAF V600E (setting [4]) and at BRAF V600E (setting [6]) was less than 1000 nM each time. Moreover, the Emax on BRAF V600E (setting [3]) is less than 50%; at BRAF V600E (setting [5]), less than 50%; with A375-NRAS^Q61K cells, 50 to 90%. Besides, in the test on A375-NRAS^Q61K cells, the GI50 was less than 1000 nM.
Turning to `CCN(C)S(=O)(=O)Nc1ccc(F)c(Oc2ccc3ncn([C@H]4COC5(CCN(CC6CN(c7cc8c(cc7F)c(N7CCC(=O)NC7=O)nn8C)C6)CC5)C4)c(=O)c3c2)c1C#N` [Compound 231, (3R)-3-[6-[2-cyano-3-[[ethyl(methyl)sulfamoyl]amino]-6-fluoro-phenoxy]-4-oxo-quinazolin-3-yl]-8-[[1-[3-(2,4-dioxohexahydropyrimidin-1-yl)-5-fluoro-1-methyl-indazol-6-yl]azetidin-3-yl]methyl]-1-oxa-8-azaspiro[4.5]decane], the DC50 on BRAF V600E (setting [1]), on BRAF V600E (setting [2]), on BRAF V600E (setting [4]) and on BRAF V600E (setting [6]) was less than 1000 nM in each case. Besides, the Emax on BRAF V600E (setting [3]) is 50 to 90%; at BRAF V600E (setting [5]) it was less than 50%; with A375-NRAS^Q61K cells, 50 to 90%. Also, the GI50 in the test with A375-NRAS^Q61K cells lay in the range of 1000 to 10000 nM.
Take `Cn1nc(N2CCC(=O)NC2=O)c2cc(F)c(N3CC4(CC(N5CCC6(CC5)C[C@@H](n5cnc7ccc(Oc8c(F)ccc(NS(=O)(=O)C9CC9)c8C#N)cc7c5=O)CO6)C4)C3)cc21` [Compound 234, N-[2-cyano-3-[3-[(3R)-8-[2-[3-(2,4-dioxohexahydropyrimidin-1-yl)-5-fluoro-1-methyl-indazol-6-yl]-2-azaspiro[3.3]heptan-6-yl]-1-oxa-8-azaspiro[4.5]decan-3-yl]-4-oxo-quinazolin-6-yl]oxy-4-fluoro-phenyl]cyclopropanesulfonamide]: the DC50 on BRAF V600E (setting [1]), on BRAF V600E (setting [2]), on BRAF V600E (setting [4]) and at BRAF V600E (setting [6]) was less than 1000 nM in each case. The Emax on BRAF V600E (setting [3]) was less than 50%; on BRAF V600E (setting [5]), less than 50%; in the test on A375-NRAS^Q61K cells it was 50 to 90%. Also, in the test with A375-NRAS^Q61K cells, the GI50 is less than 1000 nM.
Consider `Cn1nc(N2CCC(=O)NC2=O)c2cc(F)c(N3CC4(CC(N5CCC6(CC5)C[C@@H](n5cnc7ccc(Oc8c(F)ccc(NS(=O)(=O)N9C[C@H]%10C[C@H]%10C9)c8C#N)cc7c5=O)CO6)C4)C3)cc21` [Compound 241, (1S,5R)-N-[2-cyano-3-[3-[(3R)-8-[2-[3-(2,4-dioxohexahydropyrimidin-1-yl)-5-fluoro-1-methyl-indazol-6-yl]-2-azaspiro[3.3]heptan-6-yl]-1-oxa-8-azaspiro[4.5]decan-3-yl]-4-oxo-quinazolin-6-yl]oxy-4-fluoro-phenyl]-3-azabicyclo[3.1.0]hexane-3-sulfonamide], for which the DC50 on BRAF V600E (setting [1]) and at BRAF V600E (setting [2]) was less than 1000 nM throughout. The results for the Emax on BRAF V600E (setting [3]) and in the test with A375-NRAS^Q61K cells were less than 50% and 50 to 90%, respectively. In addition, in the test with A375-NRAS^Q61K cells, the GI50 lay within 1000 to 10000 nM.
Regarding `Cn1nc(N2CCC(=O)NC2=O)c2cc(F)c(N3CC4(CC(N5CCC6(CC5)C[C@@H](n5cnc7ccc(Oc8c(F)ccc(NS(=O)(=O)N9CCOCC9)c8C#N)cc7c5=O)CO6)C4)C3)cc21` [Compound 242, N-[2-cyano-3-[3-[(3R)-8-[2-[3-(2,4-dioxohexahydropyrimidin-1-yl)-5-fluoro-1-methyl-indazol-6-yl]-2-azaspiro[3.3]heptan-6-yl]-1-oxa-8-azaspiro[4.5]decan-3-yl]-4-oxo-quinazolin-6-yl]oxy-4-fluoro-phenyl]morpholine-4-sulfonamide], the DC50 on BRAF V600E (setting [1]) is less than 1000 nM; at BRAF V600E (setting [2]), 1000 to 10000 nM. Further, the Emax on BRAF V600E (setting [3]) and with A375-NRAS^Q61K cells was 50 to 90% throughout. Also, in the test with A375-NRAS^Q61K cells, the GI50 was more than 10000 nM.
`Cn1nc(N2CCC(=O)NC2=O)c2cc(F)c(N3CC4(CC(N5CCC6(CC5)C[C@@H](n5cnc7ccc(Oc8c(F)ccc(NS(=O)(=O)N9CCC%10(CC%10)C9)c8C#N)cc7c5=O)CO6)C4)C3)cc21` [Compound 245, N-[2-cyano-3-[3-[(3R)-8-[2-[3-(2,4-dioxohexahydropyrimidin-1-yl)-5-fluoro-1-methyl-indazol-6-yl]-2-azaspiro[3.3]heptan-6-yl]-1-oxa-8-azaspiro[4.5]decan-3-yl]-4-oxo-quinazolin-6-yl]oxy-4-fluoro-phenyl]-5-azaspiro[2.4]heptane-5-sulfonamide]: the Emax on BRAF V600E (setting [3]) and in the test with A375-NRAS^Q61K cells was 50 to 90% in each case. The DC50 at BRAF V600E (setting [7]) and on BRAF V600E (setting [8]) was less than 1000 nM in each case. The same compound had a GI50 with A375-NRAS^Q61K cells of less than 1000 nM.
For the compound `CC(C)S(=O)(=O)Nc1ccc(F)c(Oc2ccc3ncc(C4CC5(CCN(C6CC7(C6)CN(c6cc8c(cc6F)c(N6CCC(=O)NC6=O)nn8C)C7)CC5)C4)nc3c2)c1C#N` (stereo not shown) [Compound 247, N-[2-cyano-3-[3-[7-[2-[3-(2,4-dioxohexahydropyrimidin-1-yl)-5-fluoro-1-methyl-indazol-6-yl]-2-azaspiro[3.3]heptan-6-yl]-7-azaspiro[3.5]nonan-2-yl]quinoxalin-6-yl]oxy-4-fluoro-phenyl]propane-2-sulfonamide], the Emax on BRAF V600E (setting [3]) is less than 50%; in the test with A375-NRAS^Q61K cells it was 50 to 90%. The DC50 at BRAF V600E (setting [7]) and on BRAF V600E (setting [8]) was less than 1000 nM throughout. Further, the GI50 in the test on A375-NRAS^Q61K cells fell in the range of 1000 to 10000 nM.
As for `CCN(C)S(=O)(=O)Nc1ccc(F)c(Oc2ccc3ncn([C@H]4COC5(CCN(CC6CCN(c7cc8c(cc7F)c(N7CCC(=O)NC7=O)nn8C)CC6)CC5)C4)c(=O)c3c2)c1C#N` [Compound 251, (3R)-3-[6-[2-cyano-3-[[ethyl(methyl)sulfamoyl]amino]-6-fluoro-phenoxy]-4-oxo-quinazolin-3-yl]-8-[[1-[3-(2,4-dioxohexahydropyrimidin-1-yl)-5-fluoro-1-methyl-indazol-6-yl]-4-piperidyl]methyl]-1-oxa-8-azaspiro[4.5]decane], the DC50 on BRAF V600E (setting [1]) and at BRAF V600E (setting [2]) was less than 1000 nM in each case. Also, the Emax on BRAF V600E (setting [3]) and in the test on A375-NRAS^Q61K cells was 50 to 90% each time. For the same compound, the GI50 in the test on A375-NRAS^Q61K cells is 1000 to 10000 nM.
In the case of `Cn1nc(N2CCC(=O)NC2=O)c2cc(F)c(N3CC4(CC(N5CCC6(CC5)C[C@@H](n5cnc7ccc(Oc8c(F)ccc(NS(=O)(=O)C9CCOCC9)c8C#N)cc7c5=O)CO6)C4)C3)cc21` [Compound 252, N-[2-cyano-3-[3-[(3R)-8-[2-[3-(2,4-dioxohexahydropyrimidin-1-yl)-5-fluoro-1-methyl-indazol-6-yl]-2-azaspiro[3.3]heptan-6-yl]-1-oxa-8-azaspiro[4.5]decan-3-yl]-4-oxo-quinazolin-6-yl]oxy-4-fluoro-phenyl]tetrahydropyran-4-sulfonamide], the DC50 was less than 1000 nM at BRAF V600E (setting [1]) and more than 10000 nM on BRAF V600E (setting [2]). For the same compound, the Emax on BRAF V600E (setting [3]) and in the test on A375-NRAS^Q61K cells was 50 to 90% each time. In the test with A375-NRAS^Q61K cells, this compound had a 50% growth inhibitory concentration (GI50) of more than 10000 nM.
Turning to `CCN(C)S(=O)(=O)Nc1ccc(F)c(Oc2ccc3ncn(C4CC5(CCN(C6CCN(c7cc8c(cc7F)c(N7CCC(=O)NC7=O)nn8C)CC6(F)F)CC5)C4)c(=O)c3c2)c1C#N` (stereo not shown) [Compound 253, 6-[2-cyano-3-[[ethyl(methyl)sulfamoyl]amino]-6-fluoro-phenoxy]-3-[7-[1-[3-(2,4-dioxohexahydropyrimidin-1-yl)-5-fluoro-1-methyl-indazol-6-yl]-3,3-difluoro-4-piperidyl]-7-azaspiro[3.5]nonan-2-yl]-4-oxo-quinazoline], the values for the DC50 at BRAF V600E (setting [1]) and at BRAF V600E (setting [2]) were less than 1000 nM and more than 10000 nM, respectively. In addition, the Emax was 50 to 90% at BRAF V600E (setting [3]) and less than 50% in the test on A375-NRAS^Q61K cells. Further, in the test with A375-NRAS^Q61K cells, the GI50 lay within 1000 to 10000 nM.
For `CCN(C)S(=O)(=O)Nc1ccc(F)c(Oc2ccc3ncn(C4CC5(CCN(CC6CCN(c7cc8c(cc7F)c(N7CCC(=O)NC7=O)nn8C)CC6)CC5)C4)c(=O)c3c2)c1C#N` [Compound 255, 6-[2-cyano-3-[[ethyl(methyl)sulfamoyl]amino]-6-fluoro-phenoxy]-3-[7-[[1-[3-(2,4-dioxohexahydropyrimidin-1-yl)-5-fluoro-1-methyl-indazol-6-yl]-4-piperidyl]methyl]-7-azaspiro[3.5]nonan-2-yl]-4-oxo-quinazoline], the DC50 on BRAF V600E (setting [1]) and on BRAF V600E (setting [2]) was less than 1000 nM throughout. The Emax on BRAF V600E (setting [3]) and in the test with A375-NRAS^Q61K cells was 50 to 90% in each case. Further, the GI50 in the test on A375-NRAS^Q61K cells is more than 10000 nM.
